Among the data in patent EP0082498A2, “Beta-lactam compounds and process for the preparation thereof” (SAGAMI CHEMICAL RESEARCH CENTER, priority 1981, dated 1983) are MIC values, retold here.

Holding throughout (experiment): Antibacterial activity, minimum inhibition concentration (MIC)
What all share (assay type): cell-based

The test system of test [1] is Staphylococcus aureus FDA 209 PJC-1. Particulars: FDA209, Table 3. The procedure: (§1) Antibacterial activities of the compounds according to this invention, which had been prepared in the preceding Examples, were measured according to the method prescribed by The Committee of Amendment of "The method for measurement of the minimum inhibition concentration", The Chemotherapy Association, Japan (See Chemotherapy, Vol. 29, No. 1, pp. 76 ~ 79 (1981)).
(§2) The test results are shown in terms of the minimum inhibition concentration (MIC) (unit: µg/mℓ) in the following Tables 1 to 4.

The subject of test [2] is Proteus mirabillis IFO 3849. Particulars: Table 3. As to the method:
as §1, §2

Test [3] has as its system Klebsiella pneumoniae PCI-602. The following applies: PCI602, Table 3. As to the method: as §1, §2
Test [4] deals with Salmonella typhimurium IID-971. Particulars: Salmonella enterica, Table 3; Salmonella typhimurium IID-971; read-out: minimum inhibition concentration (MIC). As to the method:
as §1, §2

Test [5] relates to Escherichia coli NIHJ-JC-2. The following applies: NIHJJC2, Table 3. As to the method: as §1, §2

Turning to `Cn1nnnc1SCC1=C(C(=O)O)N2C(=O)C(NC(=O)C(=CCl)c3csc(N)n3)C2SC1` (single isomer, unassigned) [Example 27, sodium 7-[2-chloromethylene-2-(2-aminothiazol-4-yl)acetamido]-3-(1-methyl-1H-tetrazol-5-yl)thiomethyl-3-cephem-4-carboxylate], the MIC in test [1] is 0.78 µg/mL; in test [2], 0.2 µg/mL; in test [3], below 0.00625 µg/mL; in test [4] it was 0.78 µg/mL; in test [5] it was 0.2 µg/mL.
In the case of `CC(=O)OCC1=C(C(=O)O)N2C(=O)C(NC(=O)C(=CCl)c3csc(N)n3)C2SC1` (single isomer, unassigned) [Example 28, sodium 7-[2-chloromethylene-2-(2-aminothiazol-4-yl)-acetamido]-3-acetoxymethyl-3-cephem-4-carboxylate], the MIC in test [1] was found to be 12.5 µg/mL; in test [2], 0.2 µg/mL; in test [3], 0.05 µg/mL; in test [4], 12.5 µg/mL; in test [5], 0.1 µg/mL.
